# Data published in patent publication US20170071908A1, “PYRROLIDINE- SUBSTITUTED FLAVONE DERIVATIVES FOR PREVENTION OR TREATMENT OF ORAL MUCOSITIS” (priority 2012, published 2017).
# “Also recorded” adds a separate entry of the source.
# Legend:
# [1] = test system: Radiation Induced Oral Mucositis; test: Clinical study of compound A with external beam radiotherapy in squamous cell carcinoma of oral cavity, oropharynx and hypopharynx; type: in vivo
# Method: The compound A and external beam radiotherapy (EBRT) were administered for six weeks i.e., 2 cycles of compound A and […] of radiation. One, three weeks (21 days) cycle of combination regimen comprised of dosing compound A for days 1 to 5 and EBRT on days 1 to 5, 8 to 12 and 15 to 19. The combination treatment schedule is depicted in the following table:
# A] Dose of compound A: In the Phase I part of the clinical trial, 11 patients were enrolled and 100 mg/m^2/day of compound A was determined to be the maximum tolerated dose (MTD) as two dose limiting toxicities occurred at the higher dose of 140 mg/m^2/day. Additional 12 subjects were enrolled at the MTD dose level to confirm the safety and tolerability of that dose. B] Procedure: Compound A (100 mg/m^2/day) in 5% dextrose (200 mL) was administered to 19 patients as intravenous infusion over 30 minutes on days 1 to 5 of a 21 day cycle. After about 1.5 hours of infusion of compound A, the patients received EBRT (2 Grays per day for 5 days) to the affected body parts (primary tumor site and involved cervical lymph nodes) through linear accelerator. Patients continued to receive EBRT (2 Grays per day) on days 8-12 and 15-19. On days 6, 7, 13 and 14 patients were not infused with compound A, neither were exposed to radiotherapy.
# The procedure was repeated for cycle 2.
# At investigator's discretion, some patients were given additional radiation of up to 10 additional Grays (2 Grays per day for 5 days) commencing immediately after the completion of the prescribed radiation dose of 60 Grays. Total radiation dose for spinal cord was less than 48 Grays.
# The Common Terminology Criteria for Adverse Events (version 3) (version 3, Publish Date: Aug. 9, 2006) laid down by the National Cancer Institute for oral mucositis in radiation therapy was followed.
# [2] = test system: Radiation Induced Oral Mucositis in Hamsters; test: Radiation induced oral mucositis in hamsters (left buccal pouch, single 40 Gy dose on Day 0); type: in vivo, Male LVG Syrian Golden Hamsters; settings: for maximum mean mucositis score: score scale 0-5
# Source text: Male LVG Syrian Golden Hamsters, 5 to 6 weeks old, weighing 87.7 to 97.1 g (Charles River Laboratories, US) at the commencement of the study, were used. An ear punch was used to number the animals individually. Approximately 8-10 animals were housed per cage. The animals were acclimatized for at least 3 days before experimentation. During this period, they were observed daily to ensure that the animals are in good condition. The animals that presented poor condition were rejected.
# Animals were randomly and prospectively divided into 5 groups: • i) Group 1: Animals (n=8) were administered with 5% w/v dextrose monohydrate intraperitoneally from Day 0 to Day 4 or from Day 0 to Day 9. • ii) Group 2: Animals (n=10) were administered with 10 mg/kg of compound A intraperitoneally from Day 0 to Day 4. • iii) Group 3: Animals (n=10) were administered with 20 mg/kg of compound A intraperitoneally from Day 0 to Day 4. • iv) Group 4: Animals (n=10) administered with 10 mg/kg of compound A intraperitoneally from Day 0 to Day 9. • v) Group 5: Animals (n=10) administered with 20 mg/kg of compound A intraperitoneally from day Day 0 to Day 9.
# Mucositis induction: The animals were anesthetized and the left buccal pouch was everted, fixed and isolated using a lead shield. The left buccal pouch mucosa of the animal was exposed to radiation at a rate of 2.0 Gy/minute. A single dose of radiation (40 Gy/dose) was administered to all animals on Day 0. Radiation was generated with 160 kilovolt potential source at a focal distance of 21 cm, hardened with a 0.35 mm Al filtration system. Animals of Group 2 to 5 were treated with compound A as per the schedule detailed above one hour prior to the radiation. The volume administered to all the above Groups was 0.2 mL/100 g.
# For evaluation of mucositis, the animals were anesthetized with an inhalation anesthetic and the left buccal pouch everted. Mucositis was scored visually using the following criteria for evaluation:
# Weight change and survival were also measured throughout the study.
# The significance of differences observed between the different treatment groups was evaluated by comparing the days with mucositis scores ≧3 and […] between groups using a chi-squared analysis.
# An analysis of the severity of mucositis was performed using Mann-Whitney rank sum analysis to compare the visual mucositis scores for each treatment group to the vehicle control on each day of the analysis.
# The percentage of animals in each group with ulcerative mucositis at each day of the study was evaluated.
# [3] = amifostine therapy, serious side-effect; cited from earlier work
# [4] = 19 evaluable patients, 100 mg/m^2/day i.v. plus EBRT, CTCAE version 3
compound,measurement,setting,value
"CN1CC[C@@H](c2c(O)cc(O)c3c(=O)cc(-c4ccccc4Cl)oc23)[C@@H]1CO.Cl [Compound A, (+)-trans-2-(2-Chlorophenyl)-5,7-dihydroxy-8-(2-hydroxymethyl-1-methyl-pyrrolidin-3-yl)-chromen-4-one hydrochloride]","radioprotective effect, compared with historical rates of serious RIM (Grade 3 and above, Trotti et al.)","[1]; 19 evaluable patients, 100 mg/m^2/day i.v. plus EBRT",has radioprotective effects
same,events of mucositis reported (all grades),"[1]; 19 evaluable patients, 100 mg/m^2/day i.v. plus EBRT 2 Grays per day, 2 cycles, CTCAE version 3",five
same,events of mild mucositis (Grade 1),[1]; [4],one
same,events of moderate mucositis (Grade 2),[1]; [4],one
same,events of moderate stomatitis (Grade 2),[1]; [4],two
same,events of severe mucositis (Grade 3),[1]; [4],one
same,maximum tolerated dose (MTD),"[1]; Phase I part, intravenous infusion days 1 to 5 of a 21 day cycle, with EBRT",100 mg/m^2/day
same,dose limiting toxicities,"[1]; human, in vivo",two
same,percent of days and number of days with ulcerative mucositis (score ≧3) compared to vehicle control,[2]; 10 mg/kg from Days 0 to 9,significantly reduced
same,maximum mean mucositis score,"[2]; Group 2: 10 mg/kg intraperitoneally Day 0 to Day 4, maximum on Day 18",3.0
same,maximum mean mucositis score,"[2]; Group 3: 20 mg/kg intraperitoneally Day 0 to Day 4, maximum on Day 16",3.0
same,"mucositis severity (visual mucositis scores vs vehicle control, Mann-Whitney rank sum)","[2]; Group 4: 10 mg/kg i.p. Day 0 to Day 9, Day 18 (p=0.073) and Day 28 (p=0.064)",strong trend of lower scores
same,"mucositis severity (visual mucositis scores vs vehicle control, Mann-Whitney rank sum)","[2]; Group 4: 10 mg/kg i.p. Day 0 to Day 9, Day 24 (p=0.002) and Day 26 (p=0.024), hydrochloride, 10 mg/kg",significant reductions in mucositis; also recorded: significant improvement in mucositis scores
same,reduction of percentage of animals with ulcerative mucositis (score ≧3) compared to Group 1,"[2]; Group 4: 10 mg/kg i.p. Day 0 to Day 9, Days 24 to 28, first of three values",72.7%
same,reduction of percentage of animals with ulcerative mucositis (score ≧3) compared to Group 1,"[2]; Group 4: 10 mg/kg i.p. Day 0 to Day 9, Days 24 to 28, second of three values",83.8
same,reduction of percentage of animals with ulcerative mucositis (score ≧3) compared to Group 1,"[2]; Group 4: 10 mg/kg i.p. Day 0 to Day 9, Days 24 to 28, third of three values",77.8%
same,percentage of animal days with a mucositis score of ≧3,"[2]; Group 4: 10 mg/kg i.p. Day 0 to Day 9, entire study duration, vehicle control 63.0%",43.5%
same,maximum mean mucositis score,"[2]; Group 4: 10 mg/kg intraperitoneally Day 0 to Day 9, maximum on Day 16",3.0
same,maximum mean mucositis score,"[2]; Group 5: 20 mg/kg intraperitoneally Day 0 to Day 9, maximum on Day 16",3.1
same,percent body weight change among groups,"[2]; Groups 1 to 5, one-way ANOVA",no significant difference
same,percentage of animal days with a mucositis score of ≧3 compared to vehicle control,"[2]; other 3 treatment groups (Groups 2, 3 and 5), chi-squared analysis",not significantly different
"NCCCNCCSP(=O)(O)O [amifostine, Amifostine]","hypotension, share of patients",[3],62%
